# Test results reported in patent US10738028B2, “Spiro three-membered ring, spiro five-membered ring peptide deformylase inhibitor and use thereof in antibacteria and anti-tumor” (priority 2016, dated 2020).
# Assays:
# Format in all cases: cell-based
# [1] = tested on: HCT-116 colorectal cancer cell line; experiment: CCK-8 proliferation inhibition; conditions: concentration of 30 μM; 72 hours; CCK-8; 30 µM
# Summary of the method: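 Cells were plated overnight at 2000 cells/well, then compound in culture medium was added at a range of final concentrations. After 72 hours in a CO2 incubator, medium was replaced with 1:10 CCK-8 solution for the read-out.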
# [2] = tested on: BEL-7402 liver cancer cell line; experiment: CCK-8 proliferation inhibition; conditions: concentration of 30 μM, 72 hours, 30 µM
# Summary of the method: (§1)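 Plating at 2000 cells/well, then incubation overnight at 37° C. Next, a range of compound concentrations for 72 hours (control 1‰ DMSO). Finally, medium decanted and CCK-8 diluted 1:10 added.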
# [3] = tested on: A549 lung cancer cell line; experiment: CCK-8 proliferation inhibition; conditions: concentration of 30 μM
# Summary of the method: as §1
# [4] = tested on: MGC-803 gastric cancer cell line; experiment: CCK-8 proliferation inhibition; conditions: concentration of 30 μM
# Summary of the method: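 Proliferation was measured with 1:10 diluted CCK-8 after a 72-hour incubation with the inhibitors at various final concentrations, using 1‰ DMSO as the control. Cells were plated at 2000 per well. Culture media contained 10% newborn bovine serum: 1640 for Jurkat and MGC-803, F12 for PC3, DMEM high glucose for MCF-7.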
# [5] = tested on: Enterococcus faecium (EFM); experiment: MIC, two-fold agar dilution (CLSI), clinical isolates
# Summary of the method: (§2)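 CLSI two-fold agar dilution; MIC of test samples read per tested strain.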
# [6] = tested on: methicillin-sensitive Staphylococcus epidermidis (MSSE); experiment: as above
# Summary of the method: as §2
# [7] = tested on: Enterococcus faecalis (EFA); experiment: as above
# Summary of the method: as §2
# [8] = tested on: methicillin-sensitive Staphylococcus aureus (MSSA); experiment: as above
# Summary of the method: as §2
# [9] = tested on: methicillin-resistant Staphylococcus aureus (MRSA); experiment: as above
# Summary of the method: as §2
# [10] = tested on: Escherichia coli (including ESBLs, non-ESBLs); experiment: as above
# Summary of the method: as §2
# [11] = tested on: methicillin-resistant Staphylococcus epidermidis (MRSE); experiment: as above
# Summary of the method: as §2
# [12] = tested on: Streptococcus pneoumoniae (SPN); experiment: as above
# Summary of the method: as §2
# [13] = tested on: Moraxella catarrhalis (BCA); experiment: as above
# Summary of the method: as §2
compound,measurement,setting,value
O=C(C[C@@H](CC1CCCC1)C(=O)N1CC2(CC2)C[C@H]1C(=O)Nc1cccnn1)NO [Example 66],HCT116 inhibition rate/%,[1],75%
same,"Inhibition of proliferation, Liver cancer BEL-7402",[2],74%
same,inhibition at 30 µM,"[3]; Homo sapiens, A549, 72 h",> 50%
same,"Inhibition of proliferation, Lung cancer A549","[3]; 72 hours, 30 µM",56%
same,inhibition at 30 µM,"[4]; Homo sapiens, MGC-803, 72 h",> 50%
same,"Inhibition of proliferation, Gastric cancer MGC-803","[4]; 72 hours, 30 µM",60%
same,Anti-bacterial activity (MIC),[5]; strain EFM 15-1,16 µg/mL
same,Anti-bacterial activity (MIC),[5]; strain EFM 15-2,16 µg/mL
same,Anti-bacterial activity (MIC),[5]; strain EFM 15-3,16 µg/mL
same,Anti-bacterial activity (MIC),[5]; strain EFM 15-4,1 µg/mL
same,Anti-bacterial activity (MIC),[5]; strain EFM 15-5,0.125 µg/mL
same,Anti-bacterial activity (MIC),[5]; strain EFM 15-6,0.5 µg/mL
same,"Anti-bacterial activity (MIC), strain MSSE 15-3",[6]; clinical isolate MSSE 15-3,0.06 µg/mL
same,"Anti-bacterial activity (MIC), strain MSSE 15-4",[6]; clinical isolate MSSE 15-4,1 µg/mL
same,"Anti-bacterial activity (MIC), strain MSSE 15-5",[6]; clinical isolate MSSE 15-5,1 µg/mL
same,"Anti-bacterial activity (MIC), strain MSSE 15-6",[6]; clinical isolate MSSE 15-6,0.06 µg/mL
same,Anti-bacterial activity (MIC),[7]; strain EFA 15-1,4 µg/mL
same,Anti-bacterial activity (MIC),[7]; strain EFA 15-2,4 µg/mL
same,Anti-bacterial activity (MIC),[7]; strain EFA 15-3,2 µg/mL
same,Anti-bacterial activity (MIC),[7]; strain EFA 15-4,16 µg/mL
same,Anti-bacterial activity (MIC),[7]; strain EFA 15-5,16 µg/mL
same,Anti-bacterial activity (MIC),[7]; strain EFA 15-6,16 µg/mL
same,Anti-bacterial activity (MIC),[7]; strain EFA 15-9,16 µg/mL
same,"Anti-bacterial activity (MIC), strain MSSA 15-3",[8]; clinical isolate MSSA 15-3,1 µg/mL
same,"Anti-bacterial activity (MIC), strain MSSA 15-4",[8]; clinical isolate MSSA 15-4,0.5 µg/mL
same,"Anti-bacterial activity (MIC), strain MSSA 15-5",[8]; clinical isolate MSSA 15-5,0.5 µg/mL
same,"Anti-bacterial activity (MIC), strain MSSA 15-6",[8]; clinical isolate MSSA 15-6,32 µg/mL
same,"Anti-bacterial activity (MIC), strain MRSA 15-1",[9]; clinical isolate MRSA 15-1,0.5 µg/mL
same,"Anti-bacterial activity (MIC), strain MRSA 15-2",[9]; clinical isolate MRSA 15-2,2 µg/mL
same,"Anti-bacterial activity (MIC), strain MRSA 15-3",[9]; clinical isolate MRSA 15-3,0.5 µg/mL
same,"Anti-bacterial activity (MIC), strain MRSA 15-4",[9]; clinical isolate MRSA 15-4,1 µg/mL
same,"Anti-bacterial activity (MIC), strain ECO+ 15-1",[10]; clinical isolate ECO+ 15-1,16 µg/mL
same,"Anti-bacterial activity (MIC), strain ECO+ 15-2",[10]; clinical isolate ECO+ 15-2,32 µg/mL
same,"Anti-bacterial activity (MIC), strain ECO+ 15-3",[10]; clinical isolate ECO+ 15-3,16 µg/mL
same,"Anti-bacterial activity (MIC), strain ECO+ 15-4",[10]; clinical isolate ECO+ 15-4,16 µg/mL
same,"Anti-bacterial activity (MIC), strain ECO− 15-1",[10]; clinical isolate ECO− 15-1,16 µg/mL
same,"Anti-bacterial activity (MIC), strain ECO− 15-2",[10]; clinical isolate ECO− 15-2,16 µg/mL
same,"Anti-bacterial activity (MIC), strain ECO− 15-3",[10]; clinical isolate ECO− 15-3,32 µg/mL
same,"Anti-bacterial activity (MIC), strain ECO− 15-4",[10]; clinical isolate ECO− 15-4,8 µg/mL
same,"Anti-bacterial activity (MIC), strain MRSE 15-1",[11]; clinical isolate MRSE 15-1,0.25 µg/mL
same,"Anti-bacterial activity (MIC), strain MRSE 15-2",[11]; clinical isolate MRSE 15-2,1 µg/mL
same,"Anti-bacterial activity (MIC), strain MRSE 15-3",[11]; clinical isolate MRSE 15-3,1 µg/mL
same,"Anti-bacterial activity (MIC), strain MRSE 15-7",[11]; clinical isolate MRSE 15-7,1 µg/mL
same,Anti-bacterial activity (MIC),[12]; strain SPN 16-2,0.25 µg/mL
same,Anti-bacterial activity (MIC),[12]; strain SPN 16-4,0.25 µg/mL
same,Anti-bacterial activity (MIC),[13]; strain BCA 14-1,2 µg/mL
same,Anti-bacterial activity (MIC),[13]; strain BCA 14-4,2 µg/mL
same,Anti-bacterial activity (MIC),[13]; strain BCA 14-5,2 µg/mL
same,Anti-bacterial activity (MIC),[13]; strain BCA 14-6,2 µg/mL
same,Anti-bacterial activity (MIC),[13]; strain BCA 14-7,2 µg/mL
same,Anti-bacterial activity (MIC),[13]; strain BCA 14-8,2 µg/mL
same,Anti-bacterial activity (MIC),[13]; strain BCA 14-10,0.5 µg/mL
